What was measured:
[1] = Shelf stability of indocyanine green dissolved in water-free organic solvent; format: physicochemical; conditions: absence of water, room temperature
Source text: Through experimentation, it has been determined that the biggest cause of instability within ICG solutions to be nothing other than water and the second most recognizable factor is temperature. Therefore, with the instability factors identified the present invention identifies by way of experimentation with other solutions within which ICG is stable. An embodiment of the present invention utilizes organic liquids to create shelf stable ICG solutions. The present invention is a method of creating a shelf-stable, liquid, indocyanine green solution.
More importantly, the type of organic solvent selected is not the important factor for stability—only the absence of water is required.
When creating the solution, the manufacturing method is to add the ICG to the solvent(s) and stir until it dissolves. Thereafter the solution is loading in an airtight sealed container, thereby preventing the introduction of ambient air, which may contain water vapor, into the container.

[2] = after mixing with water; cited from earlier work

shelf stable (shelf life of solution) [1]: up to 1 year | shelf stable (shelf life of solution) ([1]; listed as ICG): up to one
Compound: CC1(C)C(/C=C/C=C/C=C/C=C2\N(CCCCS(=O)(=O)O)c3ccc4ccccc4c3C2(C)C)=[N+](CCCCS(=O)(=O)[O-])c2ccc3ccccc3c21 [indocyanine green]
shelf life of ICG solutions (unstable) [2]: a few days
